Results as given in patent US8377957B2, “Hydroxy and alkoxy substituted 1H-imidazoquinolines and methods” (3M Innovative Properties Company, priority 2005, dated 2013).

melting point [°C] | Structure (SMILES)
292 to 295 | C[C@@H](c1ccccc1)n1c(O)nc2c(N)nc3ccccc3c21 [Example 5, 4-Amino-1-[(1S)-1-phenylethyl]-1H-imidazo[4,5-c]quinolin-2-ol]
240 to 242 | COc1nc2c(N)nc3ccccc3c2n1Cc1ccccc1 [Example 7, 1-Benzyl-2-methoxy-1H-imidazo[4,5-c]quinolin-4-amine]
